Patent US8309126B2, “Dispersible bosentan tablet” (Actelion Pharmaceuticals, Ltd., priority 2005, dated 2012)

Test: Solubility of compound I in water
Format: physicochemical
Excerpt: The bitter taste of compound I can also be overcome by using flavouring agents (1.5) and/or sweetening agents (1.6).

- Effect of an acidifying agent on solubility of compound I (presence of an acidifying agent (1.4), tablet dispersed with water): decreases the solubility
- Solubility in water (water): practically insoluble
SMILES: COc1ccccc1Oc1c(NS(=O)(=O)c2ccc(C(C)(C)C)cc2)nc(-c2ncccn2)nc1OCCO [compound I, 4-tert-butyl-N-[6-(2-hydroxy-ethoxy)-5-(2-methoxy-phenoxy)-2-(pyrimidin-2-yl)-pyrimidin-4-yl]-benzenesulfonamide]
